This is an account of results in patent publication US9394352B2, “Immunogenic POTE peptides and methods of use” (The United States of America, as represented by the …, priority 2010, dated 2016).

In assay [1] the test system is C1R.AAD cells pulsed with peptide. As to the kind of experiment: 4-hour 51Cr release CTL assay after one week in vitro stimulation. In kind it is cell-based, human. As to conditions: CTLs from immunized AAD mice, restimulated 7 days with 1.0 μM peptide; targets pulsed with 1.0 μM peptide. The protocol: (§1) FIGS. 3A and 3B are graphs showing immunogenicity of the wild type and enhanced POTE 252 epitopes in AAD mice. AAD mice were immunized subcutaneously with a mixture of peptide and cytokines in adjuvant as described in Example 1. (FIG. 3A) Two weeks after the second boost, splenocytes pooled from three mice were restimulated with splenocytes of naïve AAD mice pulsed with 1.0 μM of each peptide at different effector to target (E/T) ratios. Cells were cultured in anti-mouse IFN-γ antibody coated ELISPOT™ plates. After overnight culture, biotinylated anti-mouse IFN-γ antibodies were added to each well. ELISPOT™ substrates were added to develop the color and spots were counted by an ELISPOT™ reader (AID ELISPOT™ reader system). Figures show numbers of spots per million cells. (FIG. 3B) CTL cross-reactivity on each peptide. Two weeks after the second boost, pooled spleen cells from three mice were restimulated with irradiated splenocytes pulsed with 1.0 μM of peptide for 7 days. In a 4-hour ^51Cr release assay, CIR.AAD cells were pulsed with 1.0 μM of peptide and labeled with ^51Cr. After washing three times, target cells were mixed with different numbers of effector cells and then cultured for 4 hours before harvesting.
(§2) FIGS. 4A-4D are graphs showing immunogenicity of the wild type and enhanced POTE 553 epitopes in AAD mice. AAD mice were immunized subcutaneously with a mixture of peptide and cytokines in adjuvant. (FIGS. 4A and 4B) Two weeks after the second boost, splenocytes pooled from three mice were restimulated with splenocytes of naïve AAD mice pulsed with 10 nM to 1.0 μM of each peptide at different E/T ratios. Cells were cultured in anti-mouse IFN-γ antibody coated ELISPOT™ plates. After overnight culture, biotinylated anti-mouse IFN-γ antibodies were added to each well. ELISPOT™ substrates were added to develop color and spots were counted by an ELISPOT™ reader (AID ELISPOT™ reader system). Figures show numbers of spots per million cells. (FIGS. 4C and 4D) CTL cross-reactivity on each peptide. Two weeks after the second boost, pooled spleen cells from three mice were restimulated with irradiated splenocytes pulsed with 1.0 μM of peptide for 7 days. In a 4-hour ^51Cr release assay, CIR.AAD cells were pulsed with 1.0 μM of peptide and labeled with ^51Cr. After washing three times, target cells were mixed with different numbers of effector cells and then cultured for 4 hours before harvesting.
(§3) FIGS. 5A and 5B are graphs showing immunogenicity of the POTE 272 epitope in AAD mice. AAD mice were immunized subcutaneously with a mixture of peptide and cytokines in adjuvant. (FIG. 5A) Two weeks after the second boost, splenocytes pooled from three mice were restimulated with splenocytes of naïve AAD mice pulsed with 1.0 μM POTE 272 peptide at different E/T ratios. Cells were cultured in anti-mouse IFN-γ antibody coated ELISPOT™ plates. After overnight culture, biotinylated anti-mouse IFN-γ antibodies were added in each well. ELISPOT™ substrates were added to develop color and spots were counted by an ELISPOT™ reader (AID ELISPOT™ reader system). Figures show numbers of spots per million cells. (FIG. 5B) CTL reactivity on POTE 272 peptide. Two weeks after the second boost, pooled spleen cells from three mice were restimulated with irradiated splenocytes pulsed with 1.0 μM POTE 272 peptide for 7 days. In a 4-hour ^51Cr release assay, CIR.AAD cells were pulsed with 1.0 μM POTE 272 peptide and labeled with ^51Cr. After washing three times, target cells were mixed with different numbers of effector cells and then cultured for 4 hours before harvesting.
(§4) FIGS. 6A and 6B are graphs showing immunogenicity of the wild type and enhanced POTE 323 epitopes in AAD mice. AAD mice were immunized subcutaneously with a mixture of peptide and cytokines in adjuvant. (FIG. 6A) Two weeks after the second boost, splenocytes pooled from three mice were restimulated with splenocytes of naïve AAD mice pulsed with 1.0 μM of each peptide at different E/T ratios. […]

The subject of assay [2] is IFN-γ secreting spleen cells. As to the kind of experiment: ex vivo IFN-γ ELISPOT assay on splenocytes of peptide-immunized AAD mice. In kind it is in vivo. As to conditions: AAD mice immunized s.c., splenocytes pooled from three mice two weeks after boost. The procedure:
as §1, §2, §3, §4

As for “KLMAKALLL [POTE 252-260, unmodified 9-mer peptide, residues 252-260 of human POTE]”, in assay [1], the “CTL lysis of peptide-pulsed target cells” value was “lysed target cells pulsed with the wild-type POTE 252 as well as POTE 252-9V”. For the same sequence, the “IFN-γ response (ELISPOT spots) on stimulation with the immunizing peptide” value in assay [2] is “induced a significant number of IFN-γ spots”.
